Biological target: bovine cardiac myofibrils (full-length cardiac myosin ATPase in the native sarcomere) (Bos taurus (Bovine), UniProt Q9BE39)
Experiment: Skinned bovine cardiac myofibril ATPase assay (PK/LDH-coupled)
Format: biochemical
Conditions: Ca2+ activating to 75% of maximal rate; for CDMF75 IC15: concentration giving 15% inhibition; for IC50: read-out: CDMF75 IC50
Procedure: To evaluate the effect of compounds on the ATPase activity of full-length cardiac myosin in the context of the native sarcomere, skinned myofibril assays were performed. Bovine cardiac myofibrils were obtained by homogenizing bovine cardiac left ventricular tissue in the presence of a detergent such as triton X-100. Such treatment removes membranes and a majority of the soluble cytoplasmic proteins but leaves intact the cardiac sarcomeric acto-myosin apparatus. Myofibril preparations retain the ability to hydrolyze ATP in an Ca^2+ regulated manner. ATPase activities of such myofibril preparations in the presence and absence of compounds were assayed at Ca^2+ concentrations activating to a defined fraction of the maximal rate (i.e., 25%, 75%). Small molecule agents were assessed for their ability to inhibit the steady-state ATPase activity of bovine cardiac myofibrils using pyruvate kinase and lactate dehydrogenase (PK/LDH)-coupled enzyme system. This assay regenerates myosin-produced ADP into ATP by oxidizing NADH, producing an absorbance change at 340 nm. Prior to testing small molecule agents, the bovine cardiac myofibrils were assessed for their calcium responsiveness and the calcium concentration that achieves either a 50% (pCa50) or 75% (pCa75) activation of the myofibril system was chosen as the final condition for assessing the inhibitory activity of the small molecule agents. All enzymatic activity was measured in a buffered solution containing 12 mM PIPES (piperazine-N,N′-bis(2-ethanesulfonic acid), 2 mM magnesium chloride at pH 6.8 (PM 12 buffer). Final assay conditions were 1 mg/mL of bovine cardiac myofibrils, 4 U/mL pyruvate kinase, 6 U/mL lactate dehydrogenase, 50 μM ATP, 0.1 mg/mL BSA (bovine serum albumin), 10 ppm antifoam, 1 mM DTT, 0.5 mM NADH, 1.5 mM PEP, 0.6 mM EGTA, and an amount of CaCl2) sufficient to achieve either 50% or 75% activation of the myofibril ATPase activity.

bovine cardiac myofibrils (full-length cardiac myosin ATPase in the native sarcomere), sequence (Q9BE39 whole entry): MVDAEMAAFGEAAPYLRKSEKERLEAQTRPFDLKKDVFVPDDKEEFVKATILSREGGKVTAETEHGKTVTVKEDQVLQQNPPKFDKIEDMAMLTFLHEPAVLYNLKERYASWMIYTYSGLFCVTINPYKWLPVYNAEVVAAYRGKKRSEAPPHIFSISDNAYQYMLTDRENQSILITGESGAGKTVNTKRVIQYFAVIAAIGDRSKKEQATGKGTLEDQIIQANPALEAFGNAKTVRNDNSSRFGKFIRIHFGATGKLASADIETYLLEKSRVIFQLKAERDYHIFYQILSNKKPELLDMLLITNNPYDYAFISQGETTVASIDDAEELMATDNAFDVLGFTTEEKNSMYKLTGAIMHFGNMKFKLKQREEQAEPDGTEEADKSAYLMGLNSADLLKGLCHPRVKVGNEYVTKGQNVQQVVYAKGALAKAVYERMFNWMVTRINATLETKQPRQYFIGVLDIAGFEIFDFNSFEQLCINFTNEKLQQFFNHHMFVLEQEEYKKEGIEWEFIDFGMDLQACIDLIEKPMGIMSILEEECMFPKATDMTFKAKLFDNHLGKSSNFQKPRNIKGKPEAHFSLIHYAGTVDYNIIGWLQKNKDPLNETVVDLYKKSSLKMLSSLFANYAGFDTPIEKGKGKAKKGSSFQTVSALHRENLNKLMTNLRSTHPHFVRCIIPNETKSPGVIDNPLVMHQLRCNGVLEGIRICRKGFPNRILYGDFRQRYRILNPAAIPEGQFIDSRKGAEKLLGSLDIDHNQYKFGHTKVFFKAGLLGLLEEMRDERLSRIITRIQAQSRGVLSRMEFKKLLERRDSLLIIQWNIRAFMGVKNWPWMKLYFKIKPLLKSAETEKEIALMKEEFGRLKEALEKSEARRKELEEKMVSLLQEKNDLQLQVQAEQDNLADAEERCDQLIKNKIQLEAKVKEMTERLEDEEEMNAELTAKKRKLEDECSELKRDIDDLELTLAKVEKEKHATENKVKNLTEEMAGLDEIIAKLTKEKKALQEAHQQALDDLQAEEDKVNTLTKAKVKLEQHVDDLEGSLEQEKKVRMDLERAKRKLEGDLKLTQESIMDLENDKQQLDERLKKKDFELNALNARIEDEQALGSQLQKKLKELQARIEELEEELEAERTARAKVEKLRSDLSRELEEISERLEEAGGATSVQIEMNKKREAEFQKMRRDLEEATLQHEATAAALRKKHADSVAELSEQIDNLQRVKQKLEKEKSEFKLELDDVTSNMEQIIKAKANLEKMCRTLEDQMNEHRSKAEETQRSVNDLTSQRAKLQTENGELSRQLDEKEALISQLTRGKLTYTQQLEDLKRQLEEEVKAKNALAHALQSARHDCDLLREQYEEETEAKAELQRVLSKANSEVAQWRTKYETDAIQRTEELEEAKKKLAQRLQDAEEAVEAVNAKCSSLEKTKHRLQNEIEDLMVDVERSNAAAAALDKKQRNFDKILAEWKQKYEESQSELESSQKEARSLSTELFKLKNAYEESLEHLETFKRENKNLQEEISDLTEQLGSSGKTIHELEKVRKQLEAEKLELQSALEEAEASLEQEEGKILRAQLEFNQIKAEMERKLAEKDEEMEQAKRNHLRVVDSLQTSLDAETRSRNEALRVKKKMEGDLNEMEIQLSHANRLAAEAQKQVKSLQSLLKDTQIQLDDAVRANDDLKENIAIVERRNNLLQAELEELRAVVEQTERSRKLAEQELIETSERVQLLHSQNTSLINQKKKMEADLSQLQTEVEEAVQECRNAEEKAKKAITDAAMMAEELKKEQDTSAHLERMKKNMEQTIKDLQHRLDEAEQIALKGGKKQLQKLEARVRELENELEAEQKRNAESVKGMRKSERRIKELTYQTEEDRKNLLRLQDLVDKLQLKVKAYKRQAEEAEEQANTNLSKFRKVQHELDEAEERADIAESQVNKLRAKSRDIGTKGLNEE
bovine cardiac myofibrils (full-length cardiac myosin ATPase in the native sarcomere), sequence (P85100 whole entry partner): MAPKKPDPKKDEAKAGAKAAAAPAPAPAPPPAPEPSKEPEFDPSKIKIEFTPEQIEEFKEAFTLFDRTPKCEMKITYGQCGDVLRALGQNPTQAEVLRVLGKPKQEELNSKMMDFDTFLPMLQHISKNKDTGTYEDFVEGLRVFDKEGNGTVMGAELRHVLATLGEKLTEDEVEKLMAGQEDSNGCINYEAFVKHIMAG
bovine cardiac myofibrils (full-length cardiac myosin ATPase in the native sarcomere), sequence (Q3SZE5 whole entry partner): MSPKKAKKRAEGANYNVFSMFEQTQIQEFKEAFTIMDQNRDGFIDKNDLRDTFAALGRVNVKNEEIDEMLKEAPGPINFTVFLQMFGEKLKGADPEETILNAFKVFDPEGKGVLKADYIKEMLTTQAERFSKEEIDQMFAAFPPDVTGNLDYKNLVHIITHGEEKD

Row | CDMF75 IC15 | IC50 | Compound
1 | 0.8 µM | 3.3 µM | Cc1c(C(=O)NC2CCc3cc(-c4noc(C(F)F)n4)ccc32)cnn1C (centres unmarked) [Compound 27, N-(5-(5-(difluoromethyl)-1,2,4-oxadiazol-3-yl)-2,3-dihydro-1H-inden-1-yl)-1,5-dimethyl-1H-pyrazole-4-carboxamide]
2 | 0.2 µM | 0.6 µM | CCc1cc(-c2ccc3c(c2)CC[C@H]3NC(=O)c2ocnc2C)no1 [Compound 417, (R)-N-(5-(5-ethylisoxazol-3-yl)-2,3-dihydro-1H-inden-1-yl)-4-methyloxazole-5-carboxamide]
3 | 0.6 µM | 2 µM | Cc1nc(-c2ccc3c(c2)CCC3NC(=O)c2ccccc2)no1 (centres unmarked) [Compound 2, N-(5-(5-methyl-1,2,4-oxadiazol-3-yl)-2,3-dihydro-1H-inden-1-yl)benzamide]
4 | 1.4 µM | 5.9 µM | Cc1noc(-c2ccc3c(c2)CC[C@H]3NC(=O)c2ccnc(C(F)F)c2)n1 [Compound 716, (R)-2-(difluoromethyl)-N-(5-(3-methyl-1,2,4-oxadiazol-5-yl)-2,3-dihydro-1H-inden-1-yl)isonicotinamide]
5 | 2.6 µM | 12.2 µM | Cc1noc(C(=O)NC2CCc3cc(-c4noc(C)n4)ccc32)n1 (centres unmarked) [Compound 128, 3-methyl-N-(5-(5-methyl-1,2,4-oxadiazol-3-yl)-2,3-dihydro-1H-inden-1-yl)-1,2,4-oxadiazole-5-carboxamide]
6 | 1.1 µM | 3.5 µM | CCc1nc(-c2ccc3c(c2)OCCC3NC(=O)c2ccnn2C)no1 (centres unmarked) [Compound 536, N-(7-(5-ethyl-1,2,4-oxadiazol-3-yl)chroman-4-yl)-1-methyl-1H-pyrazole-5-carboxamide]
7 | 1.8 µM | 6.8 µM | COCCn1cc(C(=O)N[C@@H]2CCc3cc(-c4noc(C(F)F)n4)ccc32)cn1 [Compound 529, (R)-N-(5-(5-(difluoromethyl)-1,2,4-oxadiazol-3-yl)-2,3-dihydro-1H-inden-1-yl)-1-(2-methoxyethyl)-1H-pyrazole-4-carboxamide]
8 | 2.2 µM | 7.8 µM | Cc1nc(-c2ccc3c(c2)CCC3NC(=O)c2cnn(C)c2C)no1 (centres unmarked) [Compound 54, 1,5-dimethyl-N-(5-(5-methyl-1,2,4-oxadiazol-3-yl)-2,3-dihydro-1H-inden-1-yl)-1H-pyrazole-4-carboxamide]
9 | 0.3 µM | 0.9 µM | Cc1ncoc1C(=O)N[C@@H]1CCc2cc(-c3noc(C(F)F)n3)ccc21 [Compound 448, (R)-N-(5-(5-(difluoromethyl)-1,2,4-oxadiazol-3-yl)-2,3-dihydro-1H-inden-1-yl)-4-methyloxazole-5-carboxamide]
10 | 2.2 µM | 9.7 µM | CCc1nc(-c2ccc3c(c2)CCC[C@H]3NC(=O)c2cnn(C)c2)no1 [Compound 517, (R)—N-(6-(5-ethyl-1,2,4-oxadiazol-3-yl)-1,2,3,4-tetrahydronaphthalen-1-yl)-1-methyl-1H-pyrazole-4-carboxamide]
11 | 0.6 µM | 1.9 µM | Cn1nccc1C(=O)N[C@@H]1CCc2cc(-c3nc(C(F)F)no3)ccc21 [Compound 217, (R)—N-(5-(3-(difluoromethyl)-1,2,4-oxadiazol-5-yl)-2,3-dihydro-1H-inden-1-yl)-1-methyl-1H-pyrazole-5-carboxamide]
12 | 2.0 µM | 7 µM | Cc1nc(-c2ccc3c(c2)OCC3NC(=O)c2cnc(C)o2)no1 (centres unmarked) [Compound 166, 2-methyl-N-(6-(5-methyl-1,2,4-oxadiazol-3-yl)-2,3-dihydrobenzofuran-3-yl)oxazole-5-carboxamide]
13 | 0.7 µM | 2.5 µM | CCc1nc(-c2ccc3c(c2)CCCC3NC(=O)c2ccnn2C)no1 (centres unmarked) [Compound 525, N-(6-(5-ethyl-1,2,4-oxadiazol-3-yl)-1,2,3,4-tetrahydronaphthalen-1-yl)-1-methyl-1H-pyrazole-5-carboxamide]
